# Reference: patent publication US12312327B2, “Crystal of 1,3,5-triazine derivative or solvate thereof and method for producing same” (Shionogi & Co., Ltd., priority 2019, dated 2025)
# Assays:
# [1] = Flowability test (Compressibility index and Hausner ratio); assay type: physicochemical; settings: for Compressibility index (%): (V0−Vf)/V0×100; for Hausner ratio: V0/Vf; for V0 (mL), loose bulk volume: about 10 g sample in 50 mL measuring cylinder, no compaction; for V0 (mL), loose bulk volume / Vf (mL), final tap volume: average of three; for Vf (mL), final tap volume: about 10 g sample, tapped until volume difference <= 0.5 mL
# Method: 1) About 10 g of a sample was gently put into a 50 mL measuring cylinder, and the sample amount was measured.
# 2) The upper surface of the powder layer was carefully leveled without compaction, and the loose bulk volume (V0) was read.
# 3) The measuring cylinder was mounted on a support stand of a powder tester (PT-X type, Hosokawa Micron Corporation).
# 4) The powder sample was tapped 10 times, 500 times, 1250 times, 2500 times and the corresponding bulk volumes (V10, V500, V1250, V2500) were read.
# 5) The process was ended when the volume difference was equal to or less than the minimum scale (0.5 mL), and the final bulk volume was defined as the final tap volume (Vf).
# 6) The steps 1) to 5) were repeated three times and measured, and the average values were adopted for calculation of the Compressibility index and the Hausner ratio.
# Compressibility index=(V0−Vf)/V0×100 Hausner ratio=V0/Vf
# [2] = Solid stability test (80° C. hermetically sealed, one week, HPLC Method D); assay type: physicochemical; settings: for Residual ratio (%): sealed storage, content by HPLC; for Types of analogous substances generated: 80° C. hermetically sealed, one week
# Method: Column: Cadenza CD-C18, φ 3.0×150 mm, 3 μm
# Flow rate: 0.55 mL per minute
# UV detection wavelength: 262 nm
# Mobile phase A: 0.1% TFA aqueous solution
# Mobile phase B: Acetonitrile
# 5 mg sample (n=4) was precisely weighed in 2 mL vial, capped, and stored at a predetermined temperature (sealed storage). Then, each sample was taken out after storage for a predetermined period, and stability (content) was evaluated.
# 80° C. hermetically sealed
# Each vial was washed out into a 25 mL volumetric flask.
# Diluting medium: acetonitrile/water=1/1
Compressibility index (%) [1] [%],Hausner ratio [1],"V0 (mL), loose bulk volume [1] [mL]","Vf (mL), final tap volume [1] [mL]","Peak area (%) of analogous substance, retention time 15.5 min ([2]; 80° C. 1W) [%]",Purity (%) ([2]; 80° C. 1W),Residual ratio (%) ([2]; 80° C. 1W),Types of analogous substances generated [2],"Peak area (%) of analogous substance, retention time 15.5 min ([2]; Initial) [%]",Purity (%) ([2]; Initial),"Peak area (%) of analogous substance, retention time 3 min ([2]; 80° C. 1W) [%]",SMILES,further results
25.4,1.3,19.0,14.2,0.16,99.77,99.79,three types,0.16,99.76,–,C[C@@H](Cn1c(=O)[nH]/c(=N\c2ccc(Oc3ccccn3)cc2)n(Cc2ccc(Cl)cc2)c1=O)C(=O)O [Anhydrous crystal Form I of compound represented by Formula ],"Flowability compared with the other crystal forms ([1]; from Compressibility index, Table 15): better flowability as compared with the other two crystal forms; Peak area (%) of analogous substance, retention time 17.1 min ([2]; 80° C. 1W): 0.04%; Peak area (%) of analogous substance, retention time 20.6 min ([2]; 80° C. 1W): 0.03%; Peak area (%) of analogous substance, retention time 17.1 min ([2]; Initial): 0.05%; Peak area (%) of analogous substance, retention time 20.6 min ([2]; Initial): 0.03%"
35.9,1.6,30.7,19.7,0.09,99.86,99.13,two types,0.09,99.91,0.05,C[C@@H](Cn1c(=O)[nH]/c(=N\c2ccc(Oc3ccccn3)cc2)n(Cc2ccc(Cl)cc2)c1=O)C(=O)O [Dihydrate crystal of compound represented by Formula (I)],–
36.7,1.6,36.8,23.3,–,99.71,99.03,five types,–,99.71,0.06,C[C@@H](Cn1c(=O)[nH]/c(=N\c2ccc(Oc3ccccn3)cc2)n(Cc2ccc(Cl)cc2)c1=O)C(=O)O [Ethyl acetate/hexane solvate crystal of compound represented] [reference compound],"Peak area (%) of analogous substance, retention time 5.8 min ([2]; 80° C. 1W): 0.01%; Peak area (%) of analogous substance, retention time 10.5 min ([2]; 80° C. 1W): 0.14%; Peak area (%) of analogous substance, retention time 14 min ([2]; 80° C. 1W): 0.04%; Peak area (%) of analogous substance, retention time 16.9 min ([2]; 80° C. 1W): 0.03%; Peak area (%) of analogous substance, retention time 3 min ([2]; Initial): 0.06%; Peak area (%) of analogous substance, retention time 5.8 min ([2]; Initial): 0.01%; Peak area (%) of analogous substance, retention time 10.5 min ([2]; Initial): 0.15%; Peak area (%) of analogous substance, retention time 14 min ([2]; Initial): 0.04%; Peak area (%) of analogous substance, retention time 16.9 min ([2]; Initial): 0.04%"
